Reference: patent publication US6503938B1, “2-phenylindoles as antiestrogenic pharmaceutical agents” (Schering Aktiengesellschaft, priority 1994, dated 2003)
Blank lines part the entries; values can stand above or below the molecule they belong to.

Experiments:
uterus of infantile mice = assay: Uterus weight test in infantile mice (estrogenic and antiestrogenic action); format: in vivo; conditions: for estrogenic action on the uterus of infantile mice: s.c. in olive oil on three successive days, uterus dry weight/body weight 24 hours after the last injection
Description: Compound no. […] For compounds nos. […] The dose/animal was administered s.c., dissolved in olive oil, on three successive days. The dry weight of the uterus [mg]/body weight [g]×100 was determined 24 hours after the last injection. This test is described in detail in Cancer Treatment Reviews, 1984, 11, 147 and J. Med. Chem., 1984, 27, 1439.

[1] = biological target: T1, estrogen receptor consisting of calf uterus cytosol (Bos taurus, UniProt P49884); assay: Relative binding affinity (RBA) for the estrogen receptor, displacement of 3H-17β-estradiol; conditions: RBA(17β-estradiol) = 100
T1 construct: for the estrogen receptor consisting of calf uteri; from tissue; host or cells: calf uterus
T1 sequence (P49884 1-596): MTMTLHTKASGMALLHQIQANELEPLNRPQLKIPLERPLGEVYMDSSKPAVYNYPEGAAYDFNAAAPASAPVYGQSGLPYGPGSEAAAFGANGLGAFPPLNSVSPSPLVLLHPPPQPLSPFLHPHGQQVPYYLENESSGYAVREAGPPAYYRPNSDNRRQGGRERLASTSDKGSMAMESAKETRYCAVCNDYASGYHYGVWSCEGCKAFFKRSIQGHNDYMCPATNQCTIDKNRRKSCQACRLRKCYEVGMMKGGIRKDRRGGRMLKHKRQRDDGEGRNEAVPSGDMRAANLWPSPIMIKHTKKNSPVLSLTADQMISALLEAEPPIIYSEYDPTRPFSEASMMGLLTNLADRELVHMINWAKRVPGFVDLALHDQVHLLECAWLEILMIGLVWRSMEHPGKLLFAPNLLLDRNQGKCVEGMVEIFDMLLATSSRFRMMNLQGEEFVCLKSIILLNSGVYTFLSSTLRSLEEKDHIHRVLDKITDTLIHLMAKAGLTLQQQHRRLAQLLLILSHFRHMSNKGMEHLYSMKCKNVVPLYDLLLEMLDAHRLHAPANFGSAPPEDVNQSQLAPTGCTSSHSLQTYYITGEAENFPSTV

[2] = tested on: hormone-sensitive human MCF-7 breast cancer cells; assay: Cytostatic activity on hormone-sensitive human MCF-7 breast cancer cells (T/C of optical densities); format: cell-based; conditions: mean of 16 determinations ± SD
[3] = substance concentration 1 · 10^−6 M in the incubation medium
[4] = substance concentration 1 · 10^−7 M in the incubation medium
[5] = substance concentration 1 · 10^−8 M in the incubation medium
[6] = substance concentration 1 · 10^−9 M in the incubation medium

Molecule: CCCCCS(=O)(=O)CCCCCCCCCCn1c(-c2ccc(O)cc2)c(C)c2cc(O)ccc21 [Compound 3, 5-Hydroxy-2-(4-hydroxyphenyl)-3-methyl-1-[10-(pentylsulfonyl)-decyl]-indole]
action of estrogen (0.4 μg/animal) on the uterus (antiestrogenic effect) (uterus of infantile mice; 10 mg/kg s.c., three successive days, with estrogen 0.4 μg/animal): completely cancelled out
dry weight of the uterus compared to control level (uterus of infantile mice; dose of 35 mg/kg s.c., three successive days): still lies below the control level
estrogenic action on the uterus of infantile mice (uterus of infantile mice): does not show any estrogenic action

RBA(*) relative binding affinity for the estrogen receptor [1]: 2.9
Molecule: CCC[S+]([O-])CCCCCCCCCCCCn1c(-c2ccc(O)cc2)c(C)c2cc(O)ccc21 (stereo not shown) [Compound 5, 5-hydroxy-2-(4-hydroxyphenyl)-3-methyl-1-[12-(propylsulfinyl)-dodecyl]-indole]

RBA(*) relative binding affinity for the estrogen receptor [1]: 1.0
Molecule: Cc1c(-c2ccc(O)cc2)n(CCCCCCCCCS(=O)(=O)CCCC(F)(F)C(F)(F)F)c2ccc(O)cc12 [Compound 12, 5-hydroxy-2-(4-hydroxyphenyl)-3-methyl-1-[9-(4,4,5,5,5-pentafluoropentylsulfonyl)-nonyl]-indole]

Molecule: CCCCCS(=O)(=O)CCCCOc1ccc(Cn2c(-c3ccc(O)cc3)c(C)c3cc(O)ccc32)cc1 [Compound 15, 5-hydroxy-2-(4-hydroxyphenyl)-3-methyl-1-[4-[4-(pentylsulfonyl)butoxy]-benzyl]-indole]
RBA(*) relative binding affinity for the estrogen receptor [1]: 9.5

RBA(*) relative binding affinity for the estrogen receptor [1]: 2.4
Molecule: Cc1c(-c2ccc(O)cc2)n(CCCCCCCCC[S+]([O-])CCCC(F)(F)C(F)(F)F)c2ccc(O)cc12 (stereo not shown) [Compound 11, 5-hydroxy-2-(4-hydroxyphenyl)-3-methyl-1-[9-(4,4,5,5,5-pentafluoropentylsulfinyl)-nonyl]-indole]
estrogenic action on the uterus of infantile mice (uterus of infantile mice): virtually identical results

melting point: 75 to 77 °C
Molecule: COc1ccc(-c2c(C)c3cc(OC)ccc3n2CCCCCCCCSc2ccccn2)cc1 [Example 6, 5-Methoxy-2-(4-methoxyphenyl)-3-methyl-1-[8-(2-pyridinylthio)-octyl]-indole]

RBA(*) relative binding affinity for the estrogen receptor [1]: 1.3
Molecule: CCCCN(C)C(=O)CCCSCCCCCCn1c(-c2ccc(O)cc2)c(C)c2cc(O)ccc21 [Compound 13, 1-{6-[3′-(n-butyl-methylcarbamoyl)-propylthio]-hexyl}-5-hydroxy-2-(4-hydroxyphenyl)-3-methylindole]
T/C [%] [2, 3]: 15.8 ± 6.9%
T/C [%] [2, 4]: 40.2 ± 11.4%
T/C [%] [2, 5]: 92.9 ± 15.2%
T/C [%] [2, 6]: 85.6 ± 16.0%

RBA(*) relative binding affinity for the estrogen receptor [1]: 3.4
Molecule: CCCCC[S+]([O-])CCCCCCCCCCn1c(-c2ccc(O)cc2)c(C)c2cc(O)ccc21 (stereo not shown) [Compound 2, 5-Hydroxy-2-(4-hydroxyphenyl)-3-methyl-1-[10-(pentylsulfinyl)-decyl]-indole]

RBA(*) relative binding affinity for the estrogen receptor [1]: 1.7
Molecule: Cc1c(-c2ccc(O)cc2)n(CCCCCCCCCCSCC(=O)N(C)C(C)C)c2ccc(O)cc12 [Compound 14, 5-hydroxy-2-(4-hydroxyphenyl)-3-methyl-1-[10-[(methyl-iso-propylcarbamoyl)-methylthio]-decyl]-indole]

RBA(*) relative binding affinity for the estrogen receptor [1]: 1.0
Molecule: Cc1c(-c2ccc(O)cc2)n(CCCCCCCCCCCN(C)S(=O)(=O)Cc2ccccc2)c2ccc(O)cc12 [Compound 9, 5-hydroxy-2-(4-hydroxyphenyl)-3-methyl-1-[11-(N-methyl-phenylmethanesulfonamido)-undecyl]-indole]

melting point: 88 °C
Molecule: CNC(=O)CCCCCCCCCCn1c(-c2ccc(OC)cc2)c(C)c2cc(OC)ccc21 [Example 7, 5-Methoxy-2-(4-methoxyphenyl)-3-methyl-1-[10-(N-methylcarbamoyl)-decyl]-indole]

RBA(*) relative binding affinity for the estrogen receptor [1]: 1.8
Molecule: CCCS(=O)(=O)N(C)CCCCCCCCCCCn1c(-c2ccc(O)cc2)c(C)c2cc(O)ccc21 [Compound 8, 5-hydroxy-2-(4-hydroxyphenyl)-3-methyl-1-[11-(N-methyl-propylsulfonamido)-undecyl]-indole]

RBA(*) relative binding affinity for the estrogen receptor [1]: 0.3
Molecule: CCCCCSCCCCCCCCCCn1c(-c2ccc(O)cc2)c(C)c2cc(O)ccc21 [Compound 1, 5-Hydroxy-2-(4-hydroxyphenyl)-3-methyl-1-[10-(pentylthio)-decyl]-indole]

Molecule: CCCCCSCCCCCCCCCCn1c2c(c3cc(O)ccc31)CCc1cc(O)ccc1-2 [Compound 16, 6,11-dihydro-3,8-dihydroxy-5H-1-[10-(pentylthio)-decyl]benzo[a]carbazole]
RBA(*) relative binding affinity for the estrogen receptor [1]: 0.13
T/C [%] ([2]; substance concentration 1 · 10^−5 M in the incubation medium): −38.6 ±13.9%
T/C [%] [2, 3]: −7.8 ± 8.9%
T/C [%] [2, 4]: −18.5 ± 15.4%
T/C [%] ([2]; substance concentration 6 · 10^−6 M in the incubation medium): −31.1 ± 10.0%

RBA(*) relative binding affinity for the estrogen receptor [1]: 1.9
Molecule: CCCS(=O)(=O)CCCCCCCCCCCCn1c(-c2ccc(O)cc2)c(C)c2cc(O)ccc21 [Compound 4, 5-hydroxy-2-(4-hydroxyphenyl)-3-methyl-1-[12-(propylsulfonyl)-dodecyl]-indole]

RBA(*) relative binding affinity for the estrogen receptor [1]: 2.0
Molecule: 5-hydroxy-2-(4-hydroxyphenyl)-3-methyl-1-[12-[2-(N-methyl-imidazolyl)thio]-decyl]-indole [Compound 7]
T/C [%] [2, 3]: 36.8 ± 8.7%
T/C [%] [2, 4]: 60.4 ± 9.1%
T/C [%] [2, 5]: 83.8 ± 11.3%

RBA(*) relative binding affinity for the estrogen receptor [1]: 1.4
melting point: 56 to 60 °C
Molecule: Cc1c(-c2ccc(O)cc2)n(CCCCCCCCSc2ccccn2)c2ccc(O)cc12 [Compound 6, 5-hydroxy-2-(4-hydroxyphenyl)-3-methyl-1-[8-(2-pyridinylthio)-octyl]-indole]

RBA(*) relative binding affinity for the estrogen receptor [1]: 2.6
Molecule: CCCCN(C)S(=O)(=O)CCCCCCCCCCn1c(-c2ccc(O)cc2)c(C)c2cc(O)ccc21 [Compound 10, 1-[10-(n-butyl-methylsulfamoyl)-decyl]-5-hydroxy-(4-hydroxyphenyl)-3-methylindole]
T/C [%] [2, 3]: −12.3 ± 6.3%
T/C [%] [2, 4]: −13.4 ± 4.5%
T/C [%] [2, 5]: 0.5 ± 6.3%
T/C [%] [2, 6]: 86.3 ± 18.0%
